Measurements from publication PMC4550478, “Metronidazole-triazole conjugates: Activity against Clostridium difficile and parasites” (European Journal of Medicinal Chemistry, 2015).
Read-outs that look alike come from different tables or passages of the source.

What was measured:
Format in all cases: cell-based
[1] = test system: ESKAPE bacteria: S. aureus MRSA (ATCC 43300), E. coli (ATCC 25922), K. pneumoniae (ATCC 700603), A. baumannii (ATCC 19606) and P. aeruginosa (ATCC 27853); test: MIC against ESKAPE pathogens, aerobic; conditions: aerobic conditions, single concentration screen, n = 3
Protocol: All compounds were tested for activity against a set of anaerobic C. difficile bacteria (630 ATCC BAA-1382, NAP1/027 M7404, NAP1/027 ATCC BAA-1803, VPI10463 ATCC 43255, CD26A54_S and CD26A54_R) and representative ESKAPE pathogens S. aureus (MRSA ATCC 43300), E. coli (ATCC 25922), K. pneumoniae (ATCC 700603), A. baumannii (ATCC 19606) and P. aeruginosa (ATCC 27853) using a standard broth microdilution assay. Selected compounds were tested for activity against H. pylori strains (26695, and clinical isolates MtzS 13/25, MtzR 98/285 and MtzR 13/61) using agar plate dilution, and for antimicrobial activity against twelve Gram-positive bacterial strains: Enterococcus faecalis (VanA clinical isolate), Enterococcus faecium (MDR VanA ATCC 51559), Streptococcus pneumoniae (MDR ATCC 700677), S. aureus (MRSA ATCC 43300, MRSA clinical isolate, MRSA/DRSA clinical isolate, GISA NARSA NRS 1, GISA NARSA NRS 17, VRSA NARSA VRS1, VRSA NARSA VRS4 and VRSA NARSA VRS10) using broth microdilution. C. difficile strains were grown at 37 °C in a COY anaerobic chamber (5% H2, 10% CO2, 85% N2). H. pylori strains were grown at 37 °C under a microaerobic atmosphere (5% O2, 10% CO2). All facultative anaerobic bacteria were grown at 37 °C with normal atmospheric oxygen levels. […] Positive growth control of bacteria and DMSO as well as a negative control of only media were included for every plate. Full assay details are provided in the supplementary information.
MICs were determined by a two-fold serial broth micro dilution according to the recommendation of CLSI standards with an inoculum of 5 × 10^5 CFU/mL^4 The compounds along with standard antibiotics were serially diluted twofold across the wells of 96-well non-binding surface plates (NBS, Corning). […] Gram-positive and Gram-negative bacteria were cultured in Mueller Hinton broth (MHB) (Bacto laboratories, Cat. no. 211443) at 37 °C overnight. A sample of each culture was then diluted 40-fold in fresh MHB broth and incubated at 37 °C for 2-3 h. The resultant mid-log phase cultures were diluted to the final concentration of 5 × 10^5 CFU/mL, then 50 μL was added to each well of the compound containing 96-well plates. All the plates were covered and incubated at 37 °C for 24 h.

[2] = Cytotoxicity, resazurin, HepG2; conditions: human
Protocol: Compounds were tested for cytotoxicity against mammalian HepG2 and HEK293 cell lines, as detailed in the supplementary information.
HEK293 and HepG2 cells were seeded as 3000 and 5000 cells per well in 384-well plates, respectively. Cells were cultured in DMEM with 1% FBS for 24 hours at 37 °C, 5% CO2. Then a dilution series of compounds was added into each well, with the highest concentration of 100 µM. […] After 24 hours incubation with the compounds, 5 µM resazurin were added into each well and incubated at 37 °C for 2 hours. As a negative control, 1% Triton X-100 was added into the culture media to lyse all the cells. The fluorescence intensity was read using Polarstar Omega with excitation/emission 560/590. The data was analysed by GraphPad Prism software. Results are presented as the average percentage of control ± SD using the following equation: Percentage of Growth = (FITEST – FINegative/FIUNTREATED –FINegative)*100.

[3] = test system: 8 additional drug resistant S. aureus strains, vancomycin resistant E. faecalis, vancomycin resistant E. faecium and multidrug resistant S. pneumoniae; test: MIC broth microdilution, drug resistant Gram-positive panel; conditions: all strains of the panel
Protocol: All compounds were tested for activity against a set of anaerobic C. difficile bacteria (630 ATCC BAA-1382, NAP1/027 M7404, NAP1/027 ATCC BAA-1803, VPI10463 ATCC 43255, CD26A54_S and CD26A54_R) and representative ESKAPE pathogens S. aureus (MRSA ATCC 43300), E. coli (ATCC 25922), K. pneumoniae (ATCC 700603), A. baumannii (ATCC 19606) and P. aeruginosa (ATCC 27853) using a standard broth microdilution assay. Selected compounds were tested for activity against H. pylori strains (26695, and clinical isolates MtzS 13/25, MtzR 98/285 and MtzR 13/61) using agar plate dilution, and for antimicrobial activity against […] Gram-positive bacterial strains: Enterococcus faecalis (VanA clinical isolate), Enterococcus faecium (MDR VanA ATCC 51559), Streptococcus pneumoniae (MDR ATCC 700677), S. aureus (MRSA ATCC 43300, MRSA clinical isolate, MRSA/DRSA clinical isolate, GISA NARSA NRS 1, GISA NARSA NRS 17, VRSA NARSA VRS1, VRSA NARSA VRS4 and VRSA NARSA VRS10) using broth microdilution. C. difficile strains were grown at 37 °C in a COY anaerobic chamber (5% H2, 10% CO2, 85% N2). H. pylori strains were grown at 37 °C under a microaerobic atmosphere (5% O2, 10% CO2). All facultative anaerobic bacteria were grown at 37 °C with normal atmospheric oxygen levels. All experiments were performed in duplicate with metronidazole, vancomycin, linezolid or colistin as positive controls for relevant strains (see Table 1). Positive growth control of bacteria and DMSO as well as a negative control of only media were included for every plate. Full assay details are provided in the supplementary information.
MICs were determined by a two-fold serial broth micro dilution according to the recommendation of CLSI standards with an inoculum of 5 × 10^5 CFU/mL^4 The compounds along with standard antibiotics were serially diluted twofold across the wells of 96-well non-binding surface plates (NBS, Corning). Standards ranged from 64 to 0.03 μg/mL, and the compounds from 128 to 0.06 μg/mL with final volumes of 50 μL per well. Gram-positive and Gram-negative bacteria were cultured in Mueller Hinton broth (MHB) (Bacto laboratories, Cat. no. 211443) at 37 °C overnight. A sample of each culture was then diluted 40-fold in fresh MHB broth and incubated at 37 °C for 2-3 h. The resultant mid-log phase cultures were diluted to the final concentration of 5 × 10^5 CFU/mL, then 50 μL was added to each well of the compound containing 96-well plates. All the plates were covered and incubated at 37 °C for 24 h.

| Compound | MIC ESKAPE bacteria [1] [µg/mL] | CC50 at 24 h [2] [µM] | MIC against panel of drug resistant Gram-positive strains [3] [µg/mL] | CC50 at 24 h ([2]; no cytotoxicity up to 100 μM, 24 hours incubation, read-out: CC50 HepG2) [µM] |
| --- | --- | --- | --- | --- |
| Cc1ncc([N+](=O)[O-])n1CCO [Compound 1, metronidazole] | >32 | > 100 | – | – |
| Cc1ncc([N+](=O)[O-])n1CCN=[N+]=[N-] [Compound 3, 1-(2-azidoethyl)-2-methyl-5-nitro-1H-imidazole] | >32 | – | > 64 | > 100 |
